# Tests used:
# ALS patients [1] = assay: Post-hoc statistical analysis 2: ALSFRS-R total score from baseline to cycle 12 (16, 17 and 19 trials), MMRM; assay type: in vivo, human
# Text: (§1) After a 12-week observation period, patients whose ALSFRS-R total score decreased by 1 to 4 points during that period were considered eligible for the trial. In the 16 trial, eligible patients were randomly divided into an edaravone treatment group and a placebo administration group, and patients in each group received administration for 24 weeks (cycles 1 to 6). After completing the 24-week double-blind portion of the 16 trial, patients who received edaravone (E) were randomly assigned to the 17 trial, and during a 24-week double-blind extension period (cycles 7 to 12), edaravone treatment (EE group) or placebo administration (EP group) was performed. On the other hand, all patients from the placebo (P) administration group received edaravone treatment (PE group). All patients received open-label edaravone treatment for the next 12 weeks (cycles 13 to 15).
# (§2) Edaravone was administered at a dose of 60 mg by intravenous infusion over 60 minutes, once daily. The infusion was given for 14 days in the first treatment cycle, and for 10 days out of the 14-day treatment period in all subsequent cycles. A 14-day drug holiday period was provided after each treatment cycle.
# (§3) Similar to the 16 trial, after a 12-week observation period, patients in the 19 trial were randomly divided into an edaravone treatment group and a placebo administration group, and patients in each group received administration for 24 weeks (cycles 1 to 6). In the 19 trial, after the double-blind treatment period, all patients received open-label edaravone treatment for an additional 24 weeks (cycles 7 to 12). Therefore, the 19 trial included an EE group and a PE group.
# (§4) In order to characterize the uric acid level and ALSFRS-R total score profiles at cycle 12, efficacy was analyzed in randomized ALS patients at the start of cycle 7 and randomized ALS patients who received the medical agent at least once after the start of cycle 7.
# (§5) Descriptive statistics (number of subjects, mean, standard deviation, minimum, maximum) were used to summarize the changes in uric acid levels (mg/dL) and ALSFRS-R total scores from baseline to cycle 12 for the entire population and for the Edaravone treatment group as a subgroup defined by the median baseline uric acid level (4.8 mg/dL). The median baseline uric acid level for all patients (4.8 mg/dL) was derived using the entire edaravone population, including the EE, PE, and EP groups in the 16 trial, the 17 trial, and the 19 trial.
# The least squares (LS) mean difference of the EE and EP treatment groups compared to the PE treatment group was estimated using a mixed-effects model for repeated measures (MMRM). By using the MMRM, the LS mean, standard error, 95% confidence interval (CI), and p-value for each group are calculated. The MMRM includes treatment group, time point, interaction between treatment group and time point, age (<65 years or >65 years), initial symptoms (bulbar or limb symptoms), ALS diagnostic criteria (ALS definite, ALS highly possible, ALS highly possible with positive test findings, ALS possible), change in ALSFRS-R total score during the 12-week observation period (−1/−2 or −3/−4), and use of riluzole (Yes or No) as fixed effects, and includes baseline of the ALSFRS-R total score or uric acid baseline (mg/dL) of the median subgroup as covariates. A compound symmetric covariance matrix was applied to model covariance of within-patient scores, and the Kenward-Roger approximation was applied to estimate a degrees of freedom of the criteria. The statistical significance level was set at a two-sided level of 0.05.
# ALS patients [2] = assay: Post-hoc statistical analysis 2: uric acid levels from baseline to cycle 12 (16, 17 and 19 trials); assay type: in vivo, human
# Text: as §1, §2, §3
# The blood uric acid levels in the 16 trial, 17 trial, and 19 trial were measured values obtained using the uricase-peroxidase method.
# as §4, §5
# ALS patients [3] = assay: Propensity score matching cohort evaluation, EE group vs PRO-ACT placebo, ALSFRS-R total score; assay type: in vivo, human
# Description: In a sensitivity analysis, propensity score matching cohort evaluation was conducted to compare the baseline changes in ALSFRS-R total score at 48 weeks between the EE group from the 16 trial, the 17 trial, and the 19 trial, and a matching cohort from the Pooled Resource Open-Access ALS Clinical Trials Database (hereinafter PRO-ACT) database. The EE group and PRO-ACT placebo group were matched 1:1 using a caliper width of 0.2 of the log it of the propensity score. The propensity score was developed using baseline confounding factors and ALS progression variables (gender, body weight, age, duration of ALS disease, ALSFRS-R total score baseline, uric acid baseline) of the EE group. A balance after the matching was evaluated using a standardized mean difference of less than 0.1 (Reference 6: J Clin Epidemiol 2001; 54 (4): 387-398). The propensity score was added as an explanatory variable for the MMRM analysis. Further, a subgroup analysis of uric acid levels was performed using MMRM analysis within the matching cohort, and the change from baseline in the ALSFRS-R total score at 48 weeks was compared between the EE group and the PRO-ACT placebo group.
# ALS patients [4] = settings: 18 trial; ALS severity of grade 3; very small number of cases; cited from earlier work
# [5] = Overall, EE group, listed as Edaravone
# [6] = Overall, Edaravone-Edaravone (EE) group
# [7] = Overall, Edaravone-Placebo (EP) group
# [8] = Overall, Placebo-Edaravone (PE) group
# [9] = Subgroup with uric acid level baseline <4.8 mg/dL, EE group
# [10] = Subgroup with uric acid level baseline <4.8 mg/dL, EP group
# [11] = Subgroup with uric acid level baseline <4.8 mg/dL, PE group
# [12] = Subgroup with uric acid level baseline ≥4.8 mg/dL, EE group
# [13] = Subgroup with uric acid level baseline ≥4.8 mg/dL, EE group, listed as Edaravone
# [14] = Subgroup with uric acid level baseline ≥4.8 mg/dL, EP group
# [15] = Subgroup with uric acid level baseline ≥4.8 mg/dL, PE group
# [16] = uric acid level baseline <4.8 mg/dL
# [17] = uric acid level baseline ≥4.8 mg/dL
structure (smiles),measurement,setting,value
"CC1=NN(c2ccccc2)C(=O)C1 [edaravone, 3-methyl-1-phenyl-2-pyrazolin-5-one]","ALSFRS-R total score change from BL to cycle 12, LS Mean (SE)","ALS patients [1]; Overall, EE group",−7.2 (1.17) points
same,"ALSFRS-R total score change from BL to cycle 12, Mean (SD)","ALS patients [1]; Overall, EE group",−8.1 points
same,"ALSFRS-R total score change from BL to cycle 12, Mean (SD)",ALS patients [1]; [5],−8.1 (5.97) points
same,"ALSFRS-R total score change from BL to cycle 12, LS Mean (SE)","ALS patients [1]; Overall, EP group",−8.7 (1.28) points
same,"ALSFRS-R total score change from BL to cycle 12, Mean (SD)","ALS patients [1]; Overall, EP group",−9.6 (6.88) points
same,"ALSFRS-R total score at Cycle 12, Mean (SD)",ALS patients [1]; [6],33.3 (7.66) points
same,"ALSFRS-R total score at Cycle 12, Mean (SD)",ALS patients [1]; [7],31.3 (7.74) points
same,"ALSFRS-R total score change from BL to cycle 12, LS Mean (SE)","ALS patients [1]; Overall, PE group",−9.9 (1.12) points
same,"ALSFRS-R total score change from BL to cycle 12, Mean (SD)","ALS patients [1]; Overall, PE group",−10.3 (7.70) points
same,"ALSFRS-R total score at Cycle 12, Mean (SD)",ALS patients [1]; [8],31.2 (8.64) points
same,"ALSFRS-R total score at Cycle 12, Mean (SD)",ALS patients [1]; [9],32.6 (8.48) points
same,"ALSFRS-R total score change from BL to cycle 12, LS Mean (SE)",ALS patients [1]; [9],−7.0 (1.38) points
same,"ALSFRS-R total score change from BL to cycle 12, Mean (SD)",ALS patients [1]; [9],−8.7 points
same,"ALSFRS-R total score change from BL to cycle 12, Mean (SD)","ALS patients [1]; Subgroup with uric acid level baseline <4.8 mg/dL, EE group, listed as Edaravone",−8.7 (6.95) points
same,"ALSFRS-R total score at Cycle 12, Mean (SD)",ALS patients [1]; [10],31.5 (7.66) points
same,"ALSFRS-R total score change from BL to cycle 12, LS Mean (SE)",ALS patients [1]; [10],−7.8 (1.78) points
same,"ALSFRS-R total score change from BL to cycle 12, Mean (SD)",ALS patients [1]; [10],−9.7 (7.17) points
same,"ALSFRS-R total score at Cycle 12, Mean (SD)",ALS patients [1]; [11],31.6 (7.99) points
same,"ALSFRS-R total score change from BL to cycle 12, LS Mean (SE)",ALS patients [1]; [11],−8.5 (1.37) points
same,"ALSFRS-R total score change from BL to cycle 12, Mean (SD)",ALS patients [1]; [11],−9.7 (7.30) points
same,"ALSFRS-R total score at Cycle 12, Mean (SD)",ALS patients [1]; [12],34.0 (6.65) points
same,"ALSFRS-R total score change from BL to cycle 12, LS Mean (SE)",ALS patients [1]; [12],−8.1 (0.91) points
same,"ALSFRS-R total score change from BL to cycle 12, Mean (SD)",ALS patients [1]; [12],−7.4 points
same,"ALSFRS-R total score change from BL to cycle 12, Mean (SD)",ALS patients [1]; [13],−7.4 (4.63) points
same,"ALSFRS-R total score at Cycle 12, Mean (SD)",ALS patients [1]; [14],31.1 (7.97) points
same,"ALSFRS-R total score change from BL to cycle 12, LS Mean (SE)",ALS patients [1]; [14],−10.3 (1.05) points
same,"ALSFRS-R total score change from BL to cycle 12, Mean (SD)",ALS patients [1]; [14],−9.5 (6.82) points
same,"ALSFRS-R total score at Cycle 12, Mean (SD)",ALS patients [1]; [15],30.8 (9.20) points
same,"ALSFRS-R total score change from BL to cycle 12, LS Mean (SE)",ALS patients [1]; [15],−12.0 (0.77) points
same,"ALSFRS-R total score change from BL to cycle 12, Mean (SD)",ALS patients [1]; [15],−10.9 (8.03) points
same,"Uric acid level change from BL to cycle 12, Mean (SD)","ALS patients [2]; Overall, EE group",-0.25 mg/dL
same,"Uric acid level change from BL to cycle 12, Mean (SD)",ALS patients [2]; [5],−0.25 (0.86) mg/dL
same,"Uric acid level change from BL to cycle 12, Mean (SD)","ALS patients [2]; Overall, EP group",-0.22 mg/dL
same,"Uric acid level change from BL to cycle 12, Mean (SD)","ALS patients [2]; Overall, EP group, listed as Edaravone",−0.22 (0.77) mg/dL
same,"Uric acid level at Cycle 12, Mean (SD)",ALS patients [2]; [6],4.4 (1.36) mg/dL
same,"Uric acid level at Cycle 12, Mean (SD)",ALS patients [2]; [7],4.9 (1.20) mg/dL
same,"Uric acid level change from BL to cycle 12, Mean (SD)","ALS patients [2]; Overall, PE group",-0.37 mg/dL
same,"Uric acid level change from BL to cycle 12, Mean (SD)","ALS patients [2]; Overall, PE group, listed as Edaravone",−0.37 (0.86) mg/dL
same,"Uric acid level at Cycle 12, Mean (SD)",ALS patients [2]; [8],4.5 (1.32) mg/dL
same,"Uric acid level at Cycle 12, Mean (SD)",ALS patients [2]; [9],3.6 (0.85) mg/dL
same,"Uric acid level change from BL to cycle 12, Mean (SD)",ALS patients [2]; [9],−0.10 (0.69) mg/dL
same,"Uric acid level at Cycle 12, Mean (SD)",ALS patients [2]; [10],4.1 (0.93) mg/dL
same,"Uric acid level change from BL to cycle 12, Mean (SD)",ALS patients [2]; [10],0.15 (0.64) mg/dL
same,"Uric acid level at Cycle 12, Mean (SD)",ALS patients [2]; [11],3.6 (0.95) mg/dL
same,"Uric acid level change from BL to cycle 12, Mean (SD)",ALS patients [2]; [11],0.00 (0.71) mg/dL
same,"Uric acid level at Cycle 12, Mean (SD)",ALS patients [2]; [12],5.4 (1.21) mg/dL
same,"Uric acid level change from BL to cycle 12, Mean (SD)",ALS patients [2]; [12],-0.4 mg/dL
same,"Uric acid level change from BL to cycle 12, Mean (SD)",ALS patients [2]; [13],−0.41 (1.01) mg/dL
same,"Uric acid level at Cycle 12, Mean (SD)",ALS patients [2]; [14],5.5 (1.04) mg/dL
same,"Uric acid level change from BL to cycle 12, Mean (SD)",ALS patients [2]; [14],-0.48 mg/dL
same,"Uric acid level change from BL to cycle 12, Mean (SD)","ALS patients [2]; Subgroup with uric acid level baseline ≥4.8 mg/dL, EP group, listed as Edaravone",−0.48 (0.77) mg/dL
same,"Uric acid level at Cycle 12, Mean (SD)",ALS patients [2]; [15],5.2 (1.17) mg/dL
same,"Uric acid level change from BL to cycle 12, Mean (SD)",ALS patients [2]; [15],-0.68 mg/dL
same,"Uric acid level change from BL to cycle 12, Mean (SD)","ALS patients [2]; Subgroup with uric acid level baseline ≥4.8 mg/dL, PE group, listed as Edaravone",−0.68 (0.86) mg/dL
same,"ALSFRS-R total score at Cycle 12, Mean (SD)",ALS patients [3]; Overall,32.8 (7.79) points
same,"ALSFRS-R total score change from baseline to cycle 12, LS Mean (SE)",ALS patients [3]; Overall,−8.7±0.53 points
same,"ALSFRS-R total score change from baseline to cycle 12, Mean (SD)",ALS patients [3]; Overall,−8.2 (6.16) points
same,"ALSFRS-R total score change from baseline to cycle 12, LSMD vs placebo PRO-ACT (SE)","ALS patients [3]; Overall, 95% CI [0.71, 3.72], p=0.0041",2.21±0.77 points
same,"ALSFRS-R total score change from baseline to cycle 12, LS Mean (SE)","ALS patients [3]; Overall, listed as Edaravone",−8.7 (0.53) points
same,"ALSFRS-R total score at Cycle 12, Mean (SD)",ALS patients [3]; [16],31.3 (8.79) points
same,"ALSFRS-R total score change from baseline to cycle 12, LS Mean (SE)",ALS patients [3]; [16],−10.3 (0.74) points
same,"ALSFRS-R total score change from baseline to cycle 12, Mean (SD)",ALS patients [3]; [16],−9.6 (7.52) points
same,"ALSFRS-R total score at Cycle 12, Mean (SD)",ALS patients [3]; [17],34.0 (6.75) points
same,"ALSFRS-R total score change from baseline to cycle 12, LS Mean (SE)",ALS patients [3]; [17],−7.3 (0.73) points
same,"ALSFRS-R total score change from baseline to cycle 12, Mean (SD)",ALS patients [3]; [17],−7.1 (4.58) points
same,change in ALSFRS-R total score compared to placebo,ALS patients [4],no statistically significant difference was observed compared to placebo

# From patent US20250134863A1, “MEDICAL AGENT FOR TREATING OR SUPPRESSING PROGRESSION OF AMYOTROPHIC LATERAL SCLEROSIS” (MITSUBISHI TANABE PHARMA CORPORATION, priority 2022, published 2025)
